In patent publication US9006450B2 (Boehringer Ingelheim International GmbH, priority 2010, dated 2015):

Molecular target: T1, human ACC2 (Homo sapiens, UniProt O00763)
T1 construct: made in house; host or cells: insect cells (baculoviral expression system)
Test: ACC2 assay, spectrophotometric 384 well assay (NADH-linked, coupled lactate dehydrogenase/pyruvate kinase)
Type: biochemical
Conditions: ACC2 assay, hACC2 construct lacking 128 N-terminal amino acids, 25° C., 340 nm; read-out: IC50
Procedure, shortened: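 Human ACC2 lacking N-terminal 128 aa, baculovirus/insect-cell expressed, anion-exchange purified; 100 mM Tris pH 7.5, 10 mM citrate, 25 mM KHCO3, 1% DMSO. Started with 200 μM NADH and acetyl-CoA plus 500 μM ATP; PK/LDH-coupled A340 decrease read 15 min at 25° C. IC50 by nonlinear fit of low-control-subtracted slopes.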

T1 sequence (O00763 129-2458 limits assumed): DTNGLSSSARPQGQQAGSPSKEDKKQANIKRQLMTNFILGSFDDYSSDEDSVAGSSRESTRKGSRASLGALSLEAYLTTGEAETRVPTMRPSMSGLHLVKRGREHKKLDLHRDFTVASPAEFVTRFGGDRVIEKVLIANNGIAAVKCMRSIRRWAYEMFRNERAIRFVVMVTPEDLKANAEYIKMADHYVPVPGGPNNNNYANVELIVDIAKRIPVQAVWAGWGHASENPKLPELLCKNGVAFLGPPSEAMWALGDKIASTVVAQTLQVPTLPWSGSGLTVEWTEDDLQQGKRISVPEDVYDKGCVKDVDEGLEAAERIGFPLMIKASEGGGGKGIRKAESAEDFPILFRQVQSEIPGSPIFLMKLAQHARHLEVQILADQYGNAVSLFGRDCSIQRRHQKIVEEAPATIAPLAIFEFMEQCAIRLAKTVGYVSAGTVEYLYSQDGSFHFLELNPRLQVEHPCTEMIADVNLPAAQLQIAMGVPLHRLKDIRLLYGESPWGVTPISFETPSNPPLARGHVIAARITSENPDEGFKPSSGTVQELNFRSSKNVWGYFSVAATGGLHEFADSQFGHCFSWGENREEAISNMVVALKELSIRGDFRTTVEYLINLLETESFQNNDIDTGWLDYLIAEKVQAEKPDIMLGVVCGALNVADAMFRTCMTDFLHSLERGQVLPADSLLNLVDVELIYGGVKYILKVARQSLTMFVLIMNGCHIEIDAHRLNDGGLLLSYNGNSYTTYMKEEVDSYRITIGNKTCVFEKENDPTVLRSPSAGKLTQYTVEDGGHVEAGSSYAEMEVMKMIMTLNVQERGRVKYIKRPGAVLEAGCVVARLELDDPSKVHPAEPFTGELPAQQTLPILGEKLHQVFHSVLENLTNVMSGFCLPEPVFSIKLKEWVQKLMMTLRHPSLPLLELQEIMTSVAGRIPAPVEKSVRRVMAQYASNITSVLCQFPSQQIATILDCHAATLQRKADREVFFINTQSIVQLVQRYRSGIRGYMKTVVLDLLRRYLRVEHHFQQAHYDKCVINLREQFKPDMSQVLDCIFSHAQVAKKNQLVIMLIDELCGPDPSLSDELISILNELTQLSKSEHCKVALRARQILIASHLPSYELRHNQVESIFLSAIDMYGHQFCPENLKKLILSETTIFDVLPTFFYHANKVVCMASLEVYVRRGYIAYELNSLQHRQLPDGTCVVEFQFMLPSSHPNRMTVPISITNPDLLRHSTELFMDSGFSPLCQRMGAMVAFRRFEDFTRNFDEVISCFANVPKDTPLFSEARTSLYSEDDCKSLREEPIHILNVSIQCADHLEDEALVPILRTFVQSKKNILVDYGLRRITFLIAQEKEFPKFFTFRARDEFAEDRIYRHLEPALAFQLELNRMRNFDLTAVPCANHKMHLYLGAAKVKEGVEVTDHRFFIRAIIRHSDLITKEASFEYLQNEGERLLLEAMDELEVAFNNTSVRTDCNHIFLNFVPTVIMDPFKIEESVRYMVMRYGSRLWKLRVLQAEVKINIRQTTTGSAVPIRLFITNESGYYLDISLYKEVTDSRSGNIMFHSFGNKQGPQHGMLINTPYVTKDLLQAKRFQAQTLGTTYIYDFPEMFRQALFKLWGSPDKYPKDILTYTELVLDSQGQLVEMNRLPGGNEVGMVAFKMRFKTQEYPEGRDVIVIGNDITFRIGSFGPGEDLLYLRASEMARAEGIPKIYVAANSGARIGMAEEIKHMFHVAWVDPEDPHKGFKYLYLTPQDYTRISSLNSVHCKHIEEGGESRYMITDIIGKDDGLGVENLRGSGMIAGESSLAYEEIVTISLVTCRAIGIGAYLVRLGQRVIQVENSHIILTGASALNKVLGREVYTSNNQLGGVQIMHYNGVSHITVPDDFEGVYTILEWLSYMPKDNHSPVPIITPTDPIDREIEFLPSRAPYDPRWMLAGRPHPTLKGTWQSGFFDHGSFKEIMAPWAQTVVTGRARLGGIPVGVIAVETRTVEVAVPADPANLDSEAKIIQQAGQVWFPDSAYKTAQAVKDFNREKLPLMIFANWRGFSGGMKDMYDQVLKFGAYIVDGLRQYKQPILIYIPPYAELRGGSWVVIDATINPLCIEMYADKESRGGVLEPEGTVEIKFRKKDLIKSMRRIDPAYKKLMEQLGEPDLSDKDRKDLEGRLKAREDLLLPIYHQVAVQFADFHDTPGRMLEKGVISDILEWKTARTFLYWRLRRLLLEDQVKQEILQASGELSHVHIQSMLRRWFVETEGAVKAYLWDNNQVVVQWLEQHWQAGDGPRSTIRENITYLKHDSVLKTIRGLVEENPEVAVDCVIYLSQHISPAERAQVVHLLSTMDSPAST

Row | Compound | IC50
1 | CCOc1ccc(N2CCC(c3ccc([C@H](C)NC(=O)C4CC4C)cc3)CC2)cc1 (some centres unmarked) [Example 6.18] | 1100 nM
2 | COc1ccc2[nH]c(-c3cnc(N4CCC(c5ccc([C@H](C)NC(C)=O)cc5)CC4)nc3)cc2c1 [Example 10.115] | 410 nM
3 | CC(=O)N[C@@H](C)c1ccc(C2CCN(c3ncc(-c4ccc5nccnc5c4)cn3)CC2)cc1 [Example 10.73] | 180 nM
4 | CC(=O)N[C@@H](C)c1ccc(C2CCN(c3ccc(O)cc3)CC2)cc1 [Example 1.48, (S)—N-{1-(4-[1-(4-Hydroxyphenyl)-piperidin-4-yl]-phenyl}-ethyl)-acetamide] | 11300 nM
5 | CC(=O)N[C@@H](C)c1ccc(C2CCN(c3ncc(-c4coc5ccccc45)cn3)CC2)cc1 [Example 10.91] | 170 nM
6 | CC(=O)N[C@@H](C)c1ccc(C2CCN(c3ncc4nc(-c5cccs5)oc4n3)CC2)cc1 [Example 5.7] | 50 nM
7 | CCOc1ccc(-c2cnc(N3CCC(c4ccc([C@H](C)NC(C)=O)cc4)CC3)nc2)cn1 [Example 10.38] | 3000 nM
8 | CC(=O)N[C@@H](C)c1ccc(C2CCN(c3ccc(Cl)cc3)CC2)cc1 [Example 1.46] | 700 nM
9 | CCCOc1ccc(N2CCC(c3ccc([C@H](C)NC(C)=O)cc3)CC2)cc1C [Example 8.31] | 1200 nM
10 | CC(=O)N[C@@H](C)c1ccc(C2CCN(c3ncnc4ccsc34)CC2)cc1 [Example 4.24] | 2100 nM
11 | CC(=O)N[C@@H](C)c1ccc(C2CCN(c3ccc4sccc4c3)CC2)cc1 [Example 1.69] | 4000 nM
12 | C[C@H](NC(=O)N(C)C)c1ccc(C2CCN(c3ccnc(Oc4cncnc4)c3)CC2)cc1 [Example 1.107] | 520 nM
13 | COc1ccc(-c2cnc(N3CCC(c4ccc([C@H](C)NC(C)=O)cc4)CC3)nc2)c(F)c1 [Example 10.37] | 190 nM
14 | CC(=O)N[C@@H](C)c1ccc(C2CCN(c3cc(I)ccn3)CC2)cc1 [Example 5.17] | 1200 nM
15 | CCOc1ccc(N2CCC(c3ccc([C@H](C)NC(=O)CCC#N)cc3)CC2)cc1 [Example 6.39] | 1300 nM
16 | CC(=O)N[C@@H](C)c1ccc(C2CCN(c3ncc(-c4ccc(O)c(Cl)c4)cn3)CC2)cc1 [Example 10.78] | 200 nM
17 | CCC(C)Oc1ccc(N2CCC(c3ccc([C@H](C)NC(C)=O)cc3)CC2)c(OC)c1 (some centres unmarked) [Example 1.39] | 130 nM
18 | CC(=O)N[C@@H](C)c1ccc(C2CCN(c3ccc(OCC(C)C)cc3)CC2)cc1 [Example 3.7] | 740 nM
19 | COCc1ccc(-c2cnc(N3CCC(c4ccc([C@H](C)NC(C)=O)cc4)CC3)nc2)cc1 [Example 10.32] | 410 nM
20 | CC(=O)N[C@@H](C)c1ccc(C2CCN(c3ccc(OCC(C)C)c(C#N)c3)CC2)cc1 [Example 8.27] | 2600 nM
21 | CC(=O)N[C@@H](C)c1ccc(C2CCN(c3ccnc(Cl)c3C)CC2)cc1 [Example 5.40] | 410 nM
22 | CC(=O)N[C@@H](C)c1ccc(C2CCN(c3cccc(OC(C)C)c3)CC2)cc1 [Example 8.7] | 160 nM
23 | C[C@H](NC(=O)N(C)C)c1ccc(C2CCN(c3ncc(-c4ccc(F)cc4)cn3)CC2)cc1 [Example 10.108] | 90 nM
24 | CC(=O)N[C@@H](C)c1ccc(C2CCN(c3ccc(OCCn4ccnc4)cc3)CC2)cc1 [Example 1.109] | 3100 nM
25 | COc1ccc(N2CCC(c3ccc([C@H](C)NC(C)=O)cc3)CC2)cc1Cl [Example 8.46] | 1000 nM
26 | CCCOc1ccc(N2CCC(c3ccc([C@H](C)NC(=O)N(C)C)cc3)CC2)c(F)c1 [Example 1.86] | 210 nM
27 | C=CCOc1cccc(N2CCC(c3ccc([C@H](C)NC(C)=O)cc3)CC2)c1 [Example 9.5] | 260 nM

Other lines, results leading:

Row | IC50 | Compound
28 | 100 nM | CC(=O)N[C@@H](C)c1ccc(C2CCN(c3ccnc(OCC4CC4)c3)CC2)cc1 [Example 19.10]
29 | 4800 nM | COc1ncc(N2CCC(c3ccc([C@H](C)NC(C)=O)cc3)CC2)cn1 [Example 16.2]
30 | 80 nM | CC(=O)N[C@@H](C)c1ccc(C2CCN(c3cc(OC(C)C)ncn3)CC2)cc1 [Example 11.2]
31 | 2000 nM | CCCCNc1nccc(N2CCC(c3ccc([C@H](C)NC(C)=O)cc3)CC2)n1 [Example 11.63]
32 | 880 nM | CC#CCOc1cc(N2CCC(c3ccc([C@H](C)NC(C)=O)cc3)CC2)ncn1 [Example 11.19]
33 | 350 nM | CC(=O)N[C@@H](C)c1ccc(C2CCN(c3ccnc(N(C)C4CCCC4)n3)CC2)cc1 [Example 11.96]
34 | 710 nM | CC(=O)N[C@@H](C)c1ccc(C2CCN(c3cc(OCC4(C#N)CC4)ncn3)CC2)cc1 [Example 11.35]
35 | 23100 nM | CCOc1ccc(N2CCC(c3ccc([C@H](C)NC(C)=O)cc3)CC2)c(C(N)=O)c1 [Example 37.1, (S)-2-(4-(4-(1-Acetamidoethyl)phenyl)piperidin-1-yl)-5-ethoxybenzamide]
36 | 6100 nM | CC(=O)N[C@@H](C)c1ccc(C2CCN(c3ncc(C(=O)NCc4ccccn4)cn3)CC2)cc1 [Example 18.13]
37 | 1500 nM | CCN(C(C)=O)[C@@H](C)c1ccc(C2CCN(c3ccc(OCC4CC4)cc3)CC2)cc1 [Example 39.2]
38 | 5200 nM | CC(=O)N[C@@H](C)c1ccc(C2CCN(c3ncc(C(=O)NC4CC4(F)F)cn3)CC2)cc1 (some centres unmarked) [Example 18.30]
39 | 5400 nM | CCOc1ccc(N2CCC(c3ccc([C@H](C)NC(=O)CN)cc3)CC2)cc1 [Example 35.1, (S)-2-Amino-N-(1-{4-[1-(4-ethoxyphenyl)piperidin-4-yl]phenyl}ethyl)acetamide]
40 | 90 nM | CCC(C)Oc1cc(N2CCC(c3ccc([C@H](C)NC(C)=O)cc3)CC2)ccn1 (some centres unmarked) [Example 19.13]
41 | 1100 nM | CC(=O)N[C@@H](C)c1ccc(C2CCN(c3cc(NCC4CC4)ncn3)CC2)cc1 [Example 11.112]
42 | 280 nM | C[C@H](NC(=O)C1CC1)c1ccc(C2CCN(c3nc(Oc4ccc(F)cc4)ncc3F)CC2)cc1 [Example 11.120]
43 | 11400 nM | CC(=O)N[C@@H](C)c1ccc(C2CCN(c3ncc(C(=O)NCc4ccn(C)n4)cn3)CC2)cc1 [Example 18.22]
44 | 1500 nM | CC(=O)N[C@@H](C)c1ccc(C2CCN(c3ncc(C(=O)Nc4cccc5c4OCO5)cn3)CC2)cc1 [Example 18.33]
